Measured values reported in the supplement of paper PMC11821682.

Experiments:
HL-60 = assay: Cell Health Index (toxicity pseudo-probability over dose series) (index 0-1); higher = more cytotoxic / cell stress;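 further: HL-60 cells exposed 4 h at 37 °C to ten threefold dilutions spanning 5 nM to 100 µM, multiparametric flow cytometry features scored by machine-learning classification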
Danio rerio embryo = assay: BMC10 any morphological effect or mortality at 120 hpf; higher = less toxic
Description: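 ZBEscreen: dechorionated Tropical 5D zebrafish embryos were exposed from 4 hpf in 96-well plates (1% DMSO, 28 °C). All compounds were first tested at 100 µM; hits were retested at 0.005-100 µM. Morphology and mortality were scored at 120 hpf and fitted as BMC10 (3-parameter log-logistic, extra risk). The embryonic photomotor response at 24 hpf and the larval photomotor response at 120 hpf are given as lowest effect levels (K-S test, p<0.01). NA = not significant up to 100 µM; NT = not tested.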

Compound | Cell Health Index (HL-60) | BMC10 any morphological effect or mortality (Danio rerio embryo)
CC(C)C1=C2[C@H]3CC[C@@H]4[C@@]5(C)CC[C@H](OC(=O)CC(C)(C)C(=O)O)C(C)(C)[C@@H]5CC[C@@]4(C)[C@]3(C)CC[C@@]2([C@@H](O)CN(CCN(C)C)Cc2ccc(Cl)cc2)CC1=O | 0.422 | > 100 µM
O=C(O)/C(S)=C/c1ccc(I)cc1 | 0.32 | > 100 µM
N#C[C@@]1(c2ccc3c(N)ncnn23)O[C@H](CO)[C@@H](O)[C@H]1O | 0.185 | > 100 µM
Nc1n[nH]c2nnc(-c3c(-c4ccccc4)nn4ccccc34)cc12 | 0.299 | > 100 µM
CCN(CC)Cc1ccc(C(=O)N(CCc2ccccc2OC)[C@@H]2CCNC2)cc1.Cl.Cl | 0.318 | > 100 µM
Nc1ccc(C(=O)Nc2cccc(-c3nc(N4CCOCC4)c4oc5ncccc5c4n3)c2)cn1 | 0.615 | > 100 µM
CCc1cccc(CC)c1NC(=O)N1Cc2[nH]nc(NC(=O)c3ccc(N4CCN(C)CC4)cc3)c2C1 | 0.634 | > 100 µM
O=C(c1ccccc1)c1ccc2nc(NC(=O)c3csc(C4CCN(c5ncnc6ccsc56)CC4)n3)[nH]c2c1 | 0.507 | > 100 µM
Cc1nnnn1/N=C\c1ccc(O)c(C(c2ccc(O)cc2)c2cc(/C=N/n3nnnc3C)ccc2O)c1 (stereo not given) | 0.389 | > 100 µM
O.Oc1cc(O)c2c(c1)O[C@H](c1ccc(O)c(O)c1)[C@@H](O)C2 (racemic) [(±)-Catechin] | 0.804 | > 100 µM
O=C(/C=C/c1ccc(O)c(O)c1)O[C@@H]1C[C@](OC(=O)/C=C/c2ccc(O)c(O)c2)(C(=O)O)C[C@@H](O)[C@H]1O [1,5-Dicaffeoylquinic acid] | 0.569 | > 100 µM
C[C@@]1(O)[C@H](O)[C@@H](CO)O[C@H]1n1cnc2c(N)ncnc21 [2'-C-Methyladenosine] | 0.266 | > 100 µM
O=C(O)c1ccc2nc(-c3ccccc3)c(-c3ccccc3)nc2c1 [2,3-diphenylquinoxaline-6-carboxylic acid] | 0.217 | > 100 µM
OC[C@H]1OC(O)C[C@@H](O)[C@@H]1O (stereo partly drawn) [2-deoxy-D-Glucose] | 0.325 | > 100 µM
O=c1c(-c2ccc(O)c(O)c2)coc2cc(O)ccc12 [3',4',7-Trihydroxyisoflavone] | 0.478 | > 100 µM
O=C(/C=C/c1ccc(O)c(O)c1)O[C@@H]1[C@H](O)C[C@@](O)(C(=O)O)C[C@H]1OC(=O)/C=C/c1ccc(O)c(O)c1 [3,4-Dicaffeoylquinic acid] | 0.416 | > 100 µM
O=C(/C=C/c1ccc(O)c(O)c1)O[C@@H]1C[C@](O)(C(=O)O)C[C@@H](OC(=O)/C=C/c2ccc(O)c(O)c2)[C@H]1O [3,5-Dicaffeoylquinic acid] | 0.614 | > 100 µM
Nc1nccc2c1ncn2[C@@H]1O[C@H](CO)[C@@H](O)[C@H]1O [3-Deazaadenosine] | 0.318 | > 100 µM
O=C(/C=C/c1ccc(O)c(O)c1)O[C@H]1[C@H](O)C[C@](O)(C(=O)O)C[C@H]1OC(=O)/C=C/c1ccc(O)c(O)c1 [4,5-Dicaffeoylquinic acid] | 0.542 | > 100 µM
C#Cc1cn([C@H]2C[C@H](O)[C@@H](CO)O2)c(=O)nc1N [5'-Ethynyl-2'-deoxycytidine] | 0.13 | > 100 µM
Cl.NCC(=O)CCC(=O)O [5-Aminolevulinic acid] | 0.194 | > 100 µM
O=C(/C=C/c1ccc(O)c(O)c1)O[C@@H]1C[C@@](O)(C(=O)O)C[C@@H](O)[C@@H]1O [5-Caffeoylquinic acid] | 0.295 | > 100 µM
O=c1[nH]cc(F)c(=O)[nH]1 [5-Fluorouracil] | 0.159 | > 100 µM
O=c1[nH]c(=O)n([C@H]2C[C@H](O)[C@@H](CO)O2)cc1CO [5-Hydroxymethyl-2'-deoxyuridine] | 0.178 | > 100 µM
O=c1cc(-c2ccccc2)oc2c(O)c(O)ccc12 [7,8-Dihydroxyflavone] | 0.507 | > 100 µM

Compound | Cell Health Index (HL-60) | BMC10 any morphological effect or mortality (Danio rerio embryo)
CCCOCCCCCCCCCC(=O)O [10-propoxy-Decanoic acid] | 0.168 | > 100 µM
O[C@H]1[C@@]2([H])[C@](CC[C@]2([H])[C@@](O)(C)CC/C=C(C)/C)(C)[C@]3(C)CC[C@]4([H])[C@@](CC[C@H](O[C@]5([H])O[C@H](CO)[C@@H](O)[C@H](O)[C@H]5O)C4(C)C)(C)[C@@]3([H])C1 [20(R)-Ginsenoside Rh2] | 0.227 | > 100 µM
O=C(O)CCCCCCCCCCCCCCCCCCCO [20-hydroxy Arachidic acid] | 0.215 | > 100 µM
CC1(C)[C@@H]2CC[C@@]1(C)C(=O)C2 [(1R)-(+)-Camphor] | 0.135 | > 100 µM
Oc1cc(O)c2c(c1)O[C@@H](c1ccc(O)c(O)c1)[C@H](O)C2 [(-)-Catechin] | 0.201 | > 100 µM
O=C(O[C@@H]1Cc2c(O)cc(O)cc2O[C@@H]1c1ccc(O)c(O)c1)c1cc(O)c(O)c(O)c1 [(-)-Epicatechin gallate] | 0.807 | > 100 µM
O=C(O[C@@H]1Cc2c(O)cc(O)cc2O[C@@H]1c1cc(O)c(O)c(O)c1)c1cc(O)c(O)c(O)c1 [(-)-Epigallocatechin gallate] | 0.854 | > 100 µM
Cl.c1ccc([C@H]2CN3CCSC3=N2)cc1 [(-)-Levamisole] | 0.173 | > 100 µM
Cl.NCCc1ccc(S(=O)(=O)F)cc1 [AEBSF] | 0.32 | > 100 µM
c1ccc(CNCc2ccc(CN3CCCNCCNCCCNCC3)cc2)nc1 [AMD 3465 parent] | 0.232 | > 100 µM
N=C(N)NCCC[C@H](NC(=O)c1ccc2ccccc2c1O)C(=O)N1CCC[C@H]1C(N)=O.O=C(O)C(F)(F)F [APC 366] | 0.223 | > 100 µM
Nc1nc(NC2CC2)c2ncn([C@H]3C=C[C@@H](CO)C3)c2n1.O=S(=O)(O)O [Abacavir] | 0.116 | > 100 µM
CC(=O)N[C@@H]([C@@H](O)[C@H](O)[C@H](O)CO)[C@@H](O)CC(=O)C(=O)O [Aceneuramic acid] | 0.172 | > 100 µM
Nc1nc2c(ncn2COCCO)c(=O)[nH]1 [Acyclovir] | 0.214 | > 100 µM
CC(C)(C)C(=O)OCOP(=O)(COCCn1cnc2c(N)ncnc21)OCOC(=O)C(C)(C)C [Adefovir dipivoxil] | 0.258 | > 100 µM
C1=C2CCCN[C@H]2[C@@H]2C[C@H]1[C@H]1CCCCN1C2 [Aloperine] | 0.209 | > 100 µM
Cl.NC12C[C@H]3C[C@@H](C1)C[C@@H](C2)C3 [Amantadine] | 0.195 | > 100 µM
Cc1cccc(C)c1N(CC(=O)Nc1ccc(-c2ncon2)cc1)C(=O)C1CCS(=O)(=O)CC1 [Amenamevir] | 0.215 | > 100 µM
O=c1cc(-c2ccc(O)c(-c3c(O)cc(O)c4c(=O)cc(-c5ccc(O)cc5)oc34)c2)oc2cc(O)cc(O)c12 [Amentoflavone] | 0.74 | > 100 µM
CC(C)CN(C[C@@H](O)[C@H](Cc1ccccc1)NC(=O)O[C@H]1CCOC1)S(=O)(=O)c1ccc(N)cc1 [Amprenavir] | 0.181 | > 100 µM
COc1cc(OC)c2c(=O)nc(-c3cc(C)c(OCCO)c(C)c3)[nH]c2c1 [Apabetalone] | 0.344 | > 100 µM
COc1ccc(C[C@H]2COC(=O)[C@@H]2Cc2ccc(O[C@@H]3O[C@H](CO)[C@@H](O)[C@H](O)[C@H]3O)c(OC)c2)cc1OC [Arctiin] | 0.192 | > 100 µM
C[C@H]1[C@H](C)CC[C@]2(C(=O)O)CC[C@]3(C)C(=CC[C@@H]4[C@@]5(C)C[C@@H](O)[C@H](O)[C@@](C)(CO)[C@@H]5CC[C@]43C)[C@H]12 [Asiatic acid] | 0.478 | > 100 µM
CC(=O)Oc1ccccc1C(=O)O [Aspirin] | 0.198 | > 100 µM
CC(C)(O)[C@@H]1CC[C@](C)([C@H]2[C@@H](O)C[C@@]3(C)[C@@H]4C[C@H](O[C@@H]5O[C@H](CO)[C@@H](O)[C@H](O)[C@H]5O)[C@H]5C(C)(C)[C@@H](O[C@@H]6OC[C@@H](O)[C@H](O)[C@H]6O)CC[C@@]56C[C@@]46CC[C@]23C)O1 [Astragaloside IV] | 0.16 | > 100 µM
